{
  "source": "patent US20190239509A1",
  "about": "“METHOD OF CONTROLLING PLANTS” (SYNGENTA PARTICIPATIONS AG, priority 2016, published 2019)",
  "format_in_all_cases": "in vivo",
  "key": {"[1]": {"system": "Digitaria horizontalis (DIGHO)", "assay": "B3 drilled field trial Brazil, post-emergence, DIGHO", "conditions": "Summer season, 28 days after application", "experimental": "(§1) Seeds of a variety of test species were used in drilled field trials to look at the control of important weed species present in corn crops as well as the effect on soybean (a volunteer crop in corn). Trials were carried out in Brazil in the summer season and the second season.\n(§2) Plot size was 10-15 m^2, and two replicates were carried out per treatment. Plants were treated post-emergence between the 2 and 4 leaf stage. Species tested were Amaranthus retroflexus (AMARE), Ipomoea grandifolia (IAQGR), Digitaria horizontalis (DIGHO), Bidens pilosa (BIDPI), Eleusine indica (ELEIN), Brachiaria decumbens (BRADC), Centrus echinatus (CCHEC), Euphorbia heterophylla (EPPHL), Brachiaria plantaginea (BRAPL) and Glycine max (GLXMA; soybean). Fungicides and insecticides were used as necessary for plant health. The test was evaluated at 28 days after application with 100=total damage to plant and 0=no damage to plant.\n(§3) Expected results were calculated using the Colby Formula."}, "[2]": {"system": "Bidens pilosa (BIDPI)", "assay": "B3 drilled field trial Brazil, post-emergence, BIDPI", "conditions": "28 days after application", "experimental": "as §1, §2, §3"}, "[3]": {"system": "Eleusine indica (ELEIN)", "assay": "B3 drilled field trial Brazil, post-emergence, ELEIN", "conditions": "28 days after application", "experimental": "as §1, §2, §3"}, "[4]": {"system": "Brachiaria decumbens (BRADC)", "assay": "B3 drilled field trial Brazil, post-emergence, BRADC", "conditions": "28 days after application", "experimental": "as §1, §2, §3"}, "[5]": {"system": "Centrus echinatus (CCHEC)", "assay": "B3 drilled field trial Brazil, post-emergence, CCHEC", "conditions": "28 days after application", "experimental": "as §1, §2, §3"}, "[6]": {"system": "Euphorbia heterophylla (EPPHL)", "assay": "B3 drilled field trial Brazil, post-emergence, EPPHL", "conditions": "Summer season, 28 days after application", "experimental": "as §1, §2, §3"}, "[7]": {"system": "Brachiaria plantaginea (BRAPL)", "assay": "B3 drilled field trial Brazil, post-emergence, BRAPL", "conditions": "Summer season, 28 days after application", "experimental": "as §1, §2, §3"}, "[8]": {"system": "Glycine max (GLXMA; soybean)", "assay": "B3 drilled field trial Brazil, post-emergence, soybean", "conditions": "28 days after application", "experimental": "as §1, §2, §3"}},
  "data": [
    {"smiles": "CCOC1C(O)N(c2cc(C(C)(C)C)on2)C(=O)N1C", "note": "(stereo not drawn) [Compound 1.4]", "values": [
      {"measurement": "Observed damage (100=total damage to plant, 0=no damage)", "setting": "[1]; 75 g ai/ha", "result": 45},
      {"measurement": "Observed damage (100=total damage to plant, 0=no damage)", "setting": "[1]; 100 g ai/ha", "result": 45},
      {"measurement": "Observed damage (100=total damage to plant, 0=no damage)", "setting": "[1]; 150 g ai/ha", "result": 69},
      {"measurement": "Observed damage (100=total damage to plant, 0=no damage)", "setting": "[2]; Second season, 50 g ai/ha", "result": 46},
      {"measurement": "Observed damage (100=total damage to plant, 0=no damage)", "setting": "[2]; Second season, 75 g ai/ha", "result": 46},
      {"measurement": "Observed damage (100=total damage to plant, 0=no damage)", "setting": "[2]; Second season, 100 g ai/ha", "result": 48},
      {"measurement": "Observed damage (100=total damage to plant, 0=no damage)", "setting": "[2]; Second season, 150 g ai/ha", "result": 60},
      {"measurement": "Observed damage (100=total damage to plant, 0=no damage)", "setting": "[2]; Summer season, 50 g ai/ha", "result": 18},
      {"measurement": "Observed damage (100=total damage to plant, 0=no damage)", "setting": "[2]; Summer season, 75 g ai/ha", "result": 38},
      {"measurement": "Observed damage (100=total damage to plant, 0=no damage)", "setting": "[2]; Summer season, 100 g ai/ha", "result": 28},
      {"measurement": "Observed damage (100=total damage to plant, 0=no damage)", "setting": "[2]; Summer season, 150 g ai/ha", "result": 47},
      {"measurement": "Observed damage (100=total damage to plant, 0=no damage)", "setting": "[3]; Second season, 50 g ai/ha", "result": 8},
      {"measurement": "Observed damage (100=total damage to plant, 0=no damage)", "setting": "[3]; Second season, 75 g ai/ha", "result": 11},
      {"measurement": "Observed damage (100=total damage to plant, 0=no damage)", "setting": "[3]; Second season, 100 g ai/ha", "result": 11},
      {"measurement": "Observed damage (100=total damage to plant, 0=no damage)", "setting": "[3]; Second season, 150 g ai/ha", "result": 14},
      {"measurement": "Observed damage (100=total damage to plant, 0=no damage)", "setting": "[3]; Summer season, 50 g ai/ha", "result": 18},
      {"measurement": "Observed damage (100=total damage to plant, 0=no damage)", "setting": "[3]; Summer season, 75 g ai/ha", "result": 25},
      {"measurement": "Observed damage (100=total damage to plant, 0=no damage)", "setting": "[3]; Summer season, 100 g ai/ha", "result": 33},
      {"measurement": "Observed damage (100=total damage to plant, 0=no damage)", "setting": "[3]; Summer season, 150 g ai/ha", "result": 53},
      {"measurement": "Observed damage (100=total damage to plant, 0=no damage)", "setting": "[4]; Second season, 50 g ai/ha", "result": 13},
      {"measurement": "Observed damage (100=total damage to plant, 0=no damage)", "setting": "[4]; Second season, 75 g ai/ha", "result": 21},
      {"measurement": "Observed damage (100=total damage to plant, 0=no damage)", "setting": "[4]; Second season, 100 g ai/ha", "result": 25},
      {"measurement": "Observed damage (100=total damage to plant, 0=no damage)", "setting": "[4]; Second season, 150 g ai/ha", "result": 43},
      {"measurement": "Observed damage (100=total damage to plant, 0=no damage)", "setting": "[4]; Summer season, 50 g ai/ha", "result": 18},
      {"measurement": "Observed damage (100=total damage to plant, 0=no damage)", "setting": "[4]; Summer season, 75 g ai/ha", "result": 28},
      {"measurement": "Observed damage (100=total damage to plant, 0=no damage)", "setting": "[4]; Summer season, 100 g ai/ha", "result": 25},
      {"measurement": "Observed damage (100=total damage to plant, 0=no damage)", "setting": "[4]; Summer season, 150 g ai/ha", "result": 30},
      {"measurement": "Observed damage (100=total damage to plant, 0=no damage)", "setting": "[5]; Second season, 50 g ai/ha", "result": 0},
      {"measurement": "Observed damage (100=total damage to plant, 0=no damage)", "setting": "[5]; Second season, 75 g ai/ha", "result": 0},
      {"measurement": "Observed damage (100=total damage to plant, 0=no damage)", "setting": "[5]; Second season, 100 g ai/ha", "result": 0},
      {"measurement": "Observed damage (100=total damage to plant, 0=no damage)", "setting": "[5]; Second season, 150 g ai/ha", "result": 0},
      {"measurement": "Observed damage (100=total damage to plant, 0=no damage)", "setting": "[5]; Summer season, 50 g ai/ha", "result": 0},
      {"measurement": "Observed damage (100=total damage to plant, 0=no damage)", "setting": "[5]; Summer season, 75 g ai/ha", "result": 0},
      {"measurement": "Observed damage (100=total damage to plant, 0=no damage)", "setting": "[5]; Summer season, 100 g ai/ha", "result": 0},
      {"measurement": "Observed damage (100=total damage to plant, 0=no damage)", "setting": "[5]; Summer season, 150 g ai/ha", "result": 0},
      {"measurement": "Observed damage (100=total damage to plant, 0=no damage)", "setting": "[6]; 50 g ai/ha", "result": 38},
      {"measurement": "Observed damage (100=total damage to plant, 0=no damage)", "setting": "[6]; 75 g ai/ha", "result": 58},
      {"measurement": "Observed damage (100=total damage to plant, 0=no damage)", "setting": "[6]; 100 g ai/ha", "result": 46},
      {"measurement": "Observed damage (100=total damage to plant, 0=no damage)", "setting": "[6]; 150 g ai/ha", "result": 52},
      {"measurement": "Observed damage (100=total damage to plant, 0=no damage)", "setting": "[7]; 50 g ai/ha", "result": 13},
      {"measurement": "Observed damage (100=total damage to plant, 0=no damage)", "setting": "[7]; 75 g ai/ha", "result": 34},
      {"measurement": "Observed damage (100=total damage to plant, 0=no damage)", "setting": "[7]; 100 g ai/ha", "result": 30},
      {"measurement": "Observed damage (100=total damage to plant, 0=no damage)", "setting": "[7]; 150 g ai/ha", "result": 31},
      {"measurement": "Observed damage (100=total damage to plant, 0=no damage)", "setting": "[8]; Second season, 50 g ai/ha", "result": 44},
      {"measurement": "Observed damage (100=total damage to plant, 0=no damage)", "setting": "[8]; Second season, 75 g ai/ha", "result": 56},
      {"measurement": "Observed damage (100=total damage to plant, 0=no damage)", "setting": "[8]; Second season, 100 g ai/ha", "result": 79},
      {"measurement": "Observed damage (100=total damage to plant, 0=no damage)", "setting": "[8]; Second season, 150 g ai/ha", "result": 86},
      {"measurement": "Observed damage (100=total damage to plant, 0=no damage)", "setting": "[8]; Summer season, 50 g ai/ha", "result": 44},
      {"measurement": "Observed damage (100=total damage to plant, 0=no damage)", "setting": "[8]; Summer season, 75 g ai/ha", "result": 49},
      {"measurement": "Observed damage (100=total damage to plant, 0=no damage)", "setting": "[8]; Summer season, 100 g ai/ha", "result": 60},
      {"measurement": "Observed damage (100=total damage to plant, 0=no damage)", "setting": "[8]; Summer season, 150 g ai/ha", "result": 83}
    ]}
  ]
}
